The record followed here is patent publication US11446352B2, “Compositions and methods for inhibiting tumor-induced immune suppression” (priority 2017, dated 2022).

The test system of series [1] is Hsp90β on the surface of E0771 and AT3 cells. In words: FACS analysis of Hsp90β expression on the cell surface. It counts as cell-based, murine. The following applies: in vitro (E0771, AT3 cell culture) and in vivo (E0771 tumors). An excerpt:
FIGS. 2I-2K show FACS analysis of Hsp90β expression on the cell surface of E0771 cells treated with DMSO or EnnA. FIGS. 2L-2N show FACS analysis of the ratio of Hsp90α to Hsp90β expression on the cell surface of E0771 cells treated with DMSO or EnnA. FIGS. 2O-2Q show FACS analysis of Hsp90α expression on the cell surface of E0771 cells treated with DMSO or EnnA. FIG. 2R is a bar graph showing expression of Hsp90β on the surface of AT3 cells treated with DMSO or EnnA. FIG. 2S is a bar graph showing expression of Hsp90α on the surface of AT3 cells treated with DMSO or EnnA. FIGS. 2T-2X show FACS analysis of Hsp90β expression on the surface of E0771 tumor cells treated with mIgG, DMSO, or EnnA.
For orientation: In flow cytometry, cells or beads pass a laser one at a time.

The subject of series [2] is E0771 tumors. In words: re-challenge of cured mice with E0771 cells (immune memory). It counts as in vivo. Conditions: EnnA/CPA-treated group re-challenged with 50,000 E0771 cells; tumors completely eliminated 10 days later. An excerpt: FIG. 6A is a line graph of tumor volume (mm^3) versus days post implantation. FIG. 6B-6E are images of three representative mice from each indicated group at the end of the treatment. FIGS. 6F-6I are a panel of images of mice from the CPA+EnnA group monitored for tumor recurrence for two more months (3 months post implantation). No tumor recurrence was observed. They were re-challenged with 50,000 E0771 cells implanted in the opposite fat pad. Five Naïve mice were used as controls. Upper panels and lower show luciferase luminescence images of mice bearing tumors at 7 and 17 days after the second implantation, respectively.
The anti-tumor activity of EnnA involves both cytotoxicity and clearance by T cells. […] Indeed, EnnA/CPA-treated mice remained tumor-free for 2 months after the end of EnnA treatment. To test whether the cured mice developed immune memory, […] 50,000 E0771 tumor cells.

Series [3] deals with E0771 tumors. The series can be described thus: E0771 syngeneic tumor model in C57BL/6 immunocompetent mice. It counts as in vivo. The following applies: for anti-tumor activity (tumor volume): C57BL/6, 10 mg/kg every other day. The method, then: 50,000 E0771 cells were surgically implanted in mammary fad pad of 10 C57BL/6 immunocompetent mice and 10 immunocompromised nude mice. 12 days after surgery, B6 and nude mice were divided into two groups each. the EnnA group was injected with 10 mg/kg of EnnA every other day, and the control group received a mixture of 15% DMSO and 20% cremophor in PBS.
100,000 E0771 cells were surgically implanted in mammary fat pad of 20 mice. Ten days after surgery, mice were divided into two groups: the EnnA group was injected with 10 mg/kg of EnnA every other day, and the control group received a mixture of 15% DMSO and 20% cremophor in PBS.

The test system of series [4] is Hs578T triple-negative cell line. In words: cell survival of breast cancer cell line upon treatment with EnnA. It counts as cell-based, human. The following applies: 48 and 72 h. The source says: (§1) The first bar indicates 100% folding activity of RRL without inhibitor. PR22 indicates the antibody without PR but with RRL and EnnA. PR represents the antibody (PR22) with PR but without RRL. All other samples have PR22, PR, and RRL without (first bar) or with increased concentration of EnnA. FIGS. 1C-1E are line graphs of cell survival versus EnnA concentration (μM) in breast cancer cell lines Hs578T (FIG. 1C), […] (FIG. 1D) and MDA-MB231 (FIG. 1E) upon treatment with EnnA for 48 and 72 h. […] PR alone (PR), antibody (PR22)+RRL, PR+RRL without inhibitor (RRL), PR+RRL with 1 μM 17-AAG (17AAG) PR+RRL with 10 μM BEAU or EnnA. FIGS. 1G-1I are autoradiographs of Western blots of cytosols from various cell lines treated with 17-AAG (1 μM) or EnnA (3 μM) with antibodies against the specified proteins. FIG. 1J is an autoradiograph showing EnnA causes autophagy in Hs578T and MDA-MB453 cell lines. FIGS. 1K-1N are electron microscopy micrographs showing autophagosomes and reduced mitochondria content in Hs578T cells treated with DMSO or EnnA. FIGS. 1O-1P are fluorescence micrographs showing EnnA causing reduced mitochondria content in Hs578T cells. FIGS. 1Q-1BB are fluorescence micrographs showing mitophagy in Hsp578T cells treated with EnnA as indicated by colocalization of the mitochondria marker Cox4 and the autophagy marker LC3BII.

Another series relates to MDA-MB-231 cell line. The description is as above. It counts as cell-based, human. Conditions: MDA-MB-231, 48 and 72 h.
Excerpt: as §1

The test system of series [5] is HER2+ MAD-MB-453 cell line. Described as above. Conditions: MAD-MB-453, 48 and 72 h. It counts as cell-based, human.
Excerpt: as §1

Molecules are shown by their SMILES.

With `CC[C@H](C)[C@H]1C(=O)O[C@H](C(C)C)C(=O)N(C)[C@@H]([C@@H](C)CC)C(=O)O[C@H](C(C)C)C(=O)N(C)[C@@H]([C@@H](C)CC)C(=O)O[C@H](C(C)C)C(=O)N1C` [EnnA, Enniatin A], the “exposure of Hsp90β to the surface of cancer cells” value in series [1] is recorded as “induces exposure”. Also, the “mice showing small tumors seven days after the second implantation” value in the series on E0771 tumors [2] is reported as “two of the seven”. For the same compound, in the series with E0771 tumors [3] (10 mg/kg every other day), the “effect on bodyweight or activities of mice” value was “No significant effect”. Besides, the “anti-tumor activity (tumor volume)” value in the series with E0771 tumors [3] (Example 3: 50,000 E0771 cells) and in the series with E0771 tumors [3] (Example 4: 100,000 E0771 cells) was “powerful anti-tumor activity” throughout. Also, the cytotoxicity entry in series [4] is “potent and concentration-dependent cytotoxicity”; with MDA-MB-231 cell line it was “potent and concentration-dependent cytotoxicity”; in series [5], “potent and concentration-dependent cytotoxicity”.
